Measurements from US20090054392A1, “NAPHTHYLPYRIMIDINE, NAPHTHYLPYRAZINE AND NAPHTHYLPYRIDAZINE ANALOGS AND THEIR USE AS AGONISTS OF THE WNT-BETA-CATENIN CELLULAR MESSAGING SYSTEM” (Wyeth, priority 2007, published 2009).
Where two headings read alike, the source gives them in different places.

Test system: Dkk1-LRP5-TCF-Luciferase
Experiment: Functional Dkk1-LRP5-TCF-Luciferase Assay in U2OS Cells
Conditions: for fold induction at 20 µM: read-out: C = TCF ACTIVITY/DMSO CONTROL Fold induction @ 20.0 uM, 20.0 uM compound; for A = MAX FOLD Induction/DMSO CONTROL: maximum fold induction over DMSO control
[1] = Homo sapiens, U2OS, read-out: B = TCF ACTIVITY/DMSO CONTROL Fold induction @ 2.0 uM, 2.0 uM compound

Row | A = MAX FOLD Induction/DMSO CONTROL | SMILES | fold induction at 2 µM [1] | fold induction at 20 µM (Homo sapiens, U2OS) | other results
1 | – | c1ccc2cc(-c3ccnc(N4CC[C@@H](N5CCN6CCCCC6C5)C4)n3)ccc2c1 (stereo partly drawn) [2-{(3R)-1-[4-(2-naphthyl)pyrimidin-2-yl]pyrrolidin-3-yl}octahydro-2H-pyrido[1,2-a]pyrazine] | 1.3 | – | –
2 | 2.180 fold | CN1CCN(C[C@H]2CCN(c3nccc(-c4ccc5ccccc5c4)n3)C2)CC1 [2-{(3R)-3-[(4-methylpiperazin-1-yl)methyl]pyrrolidin-1-yl}-4-(2-naphthyl)pyrimidine] | 2.5 | 0.01 | –
3 | – | CN1CCN(C[C@@H]2CCN(c3nccc(-c4ccc5ccccc5c4)n3)C2)CC1 [2-{(3S)-3-[(4-methylpiperazin-1-yl)methyl]pyrrolidin-1-yl}-4-(2-naphthyl)pyrimidine] | 1.8 | – | –
4 | – | CN(CCCO)[C@@H]1CCN(c2nccc(-c3ccc4ccccc4c3)n2)C1 [3-(methyl{(3R)-1-[4-(2-naphthyl)pyrimidin-2-yl]pyrrolidin-3-yl}amino)propan-1-ol] | – | 3.3 | –
5 | – | CN(CCCO)[C@H]1CCN(c2nccc(-c3ccc4ccccc4c3)n2)C1 [3-(methyl{(3S)-1-[4-(2-naphthyl)pyrimidin-2-yl]pyrrolidin-3-yl}amino)propan-1-ol] | 1.1 | – | –
6 | – | NC(=O)N1CC(CNc2nccc(-c3ccc4ccccc4c3)n2)C1 [3-({[4-(2-naphthyl)pyrimidin-2-yl]amino}methyl)azetidine-1-carboxamide] | 1.09 | 1.58 | –
7 | – | c1ccc(N2CCN(c3nccc(-c4ccc5ccccc5c4)n3)CC2)nc1 [4-(2-naphthyl)-2-(4-pyridin-2-ylpiperazin-1-yl)pyrimidine] | 1.8 | – | –
8 | – | c1cnc(N2CCN(c3nccc(-c4ccc5ccccc5c4)n3)CC2)nc1 [4-(2-naphthyl)-2-(4-pyrimidin-2-ylpiperazin-1-yl)pyrimidine] | 1.02 | 1.24 | –
9 | – | c1ccc2cc(-c3ccnc(N4CCC(CN5CCCCC5)C4)n3)ccc2c1 (stereo not shown) [4-(2-naphthyl)-2-[3-(piperidin-1-ylmethyl)pyrrolidin-1-yl]pyrimidine] | 1.66 | 0.01 | –
10 | 7.000 fold | c1ccc2cc(-c3ccnc(N4CCC(CN5CCCC5)C4)n3)ccc2c1 (stereo not shown) [4-(2-naphthyl)-2-[3-(pyrrolidin-1-ylmethyl)pyrrolidin-1-yl]pyrimidine] | 1.87 | – | EC50 (Homo sapiens, U2OS): 7.59 µM
11 | – | CC(C1CCN(c2nccc(-c3ccc4ccccc4c3)n2)CC1)[N+](=O)[O-] (stereo not shown) [4-(2-naphthyl)-2-[4-(1-nitroethyl)piperidin-1-yl]pyrimidine] | – | 1.44 | –
12 | – | O=[N+]([O-])CC1CCN(c2nccc(-c3ccc4ccccc4c3)n2)CC1 [4-(2-naphthyl)-2-[4-(nitromethyl)piperidin-1-yl]pyrimidine] | 1.5 | 0.68 | –
13 | 2.510 fold | c1ccc2cc(-c3ccnc(N4CCC(CN5CCNCC5)CC4)n3)ccc2c1 [4-(2-naphthyl)-2-[4-(piperazin-1-ylmethyl)piperidin-1-yl]pyrimidine] | 5.17 | 0.01 | –
14 | – | c1ccc2cc(-c3ccnc(N4CCC(CN5CCCCC5)CC4)n3)ccc2c1 [4-(2-naphthyl)-2-[4-(piperidin-1-ylmethyl)piperidin-1-yl]pyrimidine] | 1.09 | 2.8 | EC50: 8.59 µM; C = TCF ACTIVITY/DMSO CONTROL Fold induction @ 20.0 uM (20.0 uM compound, 20 µM): 1.687 fold; EC50 (Homo sapiens, U2OS): 8 µM
15 | – | c1ccc2cc(-c3ccnc(N4CCC(CN5CCCC5)CC4)n3)ccc2c1 [4-(2-naphthyl)-2-[4-(pyrrolidin-1-ylmethyl)piperidin-1-yl]pyrimidine] | 2.07 | – | EC50: 3.18 µM; EC50 (Homo sapiens, U2OS): 3.5 µM
16 | – | O=C([C@H]1CCCN1c1nccc(-c2ccc3ccccc3c2)n1)N1CCCCC1 [4-(2-naphthyl)-2-[(2R)-2-(piperidin-1-ylcarbonyl)pyrrolidin-1-yl]pyrimidine] | 1.01 | – | –
17 | – | O=C([C@H]1CCCN1c1nccc(-c2ccc3ccccc3c2)n1)N1CCCC1 [4-(2-naphthyl)-2-[(2R)-2-(pyrrolidin-1-ylcarbonyl)pyrrolidin-1-yl]pyrimidine] | 1.05 | 1.1 | –
18 | – | O=C([C@@H]1CCCN1c1nccc(-c2ccc3ccccc3c2)n1)N1CCCCC1 [4-(2-naphthyl)-2-[(2S)-2-(piperidin-1-ylcarbonyl)pyrrolidin-1-yl]pyrimidine] | 1.91 | – | –
19 | – | O=C([C@@H]1CCCN1c1nccc(-c2ccc3ccccc3c2)n1)N1CCCC1 [4-(2-naphthyl)-2-[(2S)-2-(pyrrolidin-1-ylcarbonyl)pyrrolidin-1-yl]pyrimidine] | 0.87 | 1.07 | –
20 | – | c1ccc2cc(-c3ccnc(N4CC[C@H](CN5CCCCC5)C4)n3)ccc2c1 [4-(2-naphthyl)-2-[(3R)-3-(piperidin-1-ylmethyl)pyrrolidin-1-yl]pyrimidine] | 1.21 | 1.34 | –

Row | A = MAX FOLD Induction/DMSO CONTROL | SMILES | fold induction at 2 µM [1] | fold induction at 20 µM (Homo sapiens, U2OS) | other results
21 | 6.053 fold | c1ccc2cc(-c3ccnc(N4CC[C@H](CN5CCCC5)C4)n3)ccc2c1 [4-(2-naphthyl)-2-[(3R)-3-(pyrrolidin-1-ylmethyl)pyrrolidin-1-yl]pyrimidine] | 1.5 | 6.07 | EC50 (Homo sapiens, U2OS): 7.67 µM
22 | 2.510 fold | c1ccc2cc(-c3ccnc(N4CC[C@@H](N5CCNCC5)C4)n3)ccc2c1 [4-(2-naphthyl)-2-[(3R)-3-piperazin-1-ylpyrrolidin-1-yl]pyrimidine] | 3.44 | – | –
23 | – | c1ccc2cc(-c3ccnc(N4CC[C@@H](N5CCCCC5)C4)n3)ccc2c1 [4-(2-naphthyl)-2-[(3R)-3-piperidin-1-ylpyrrolidin-1-yl]pyrimidine] | 1.29 | 0.06 | –
24 | – | c1ccc2cc(-c3ccnc(N4CC[C@@H](CN5CCCCC5)C4)n3)ccc2c1 [4-(2-naphthyl)-2-[(3S)-3-(piperidin-1-ylmethyl)pyrrolidin-1-yl]pyrimidine] | 1.34 | 1.06 | –
25 | 4.050 fold | c1ccc2cc(-c3ccnc(N4CC[C@@H](CN5CCCC5)C4)n3)ccc2c1 [4-(2-naphthyl)-2-[(3S)-3-(pyrrolidin-1-ylmethyl)pyrrolidin-1-yl]pyrimidine] | 1.9 | 5.18 | –
26 | 7.520 fold | c1ccc2cc(-c3ccnc(N4CC[C@H](N5CCNCC5)C4)n3)ccc2c1 [4-(2-naphthyl)-2-[(3S)-3-piperazin-1-ylpyrrolidin-1-yl]pyrimidine] | 6.16 | – | EC50 (Homo sapiens, U2OS): 1.1 µM
27 | – | c1ccc2cc(-c3ccnc(N4CC[C@H](N5CCCCC5)C4)n3)ccc2c1 [4-(2-naphthyl)-2-[(3S)-3-piperidin-1-ylpyrrolidin-1-yl]pyrimidine] | 1.65 | – | –
28 | – | c1ccc2cc(-c3ccnc(N4CCCCC4)n3)ccc2c1 [4-(2-naphthyl)-2-piperidin-1-ylpyrimidine] | 0.92 | 1.79 | –
29 | – | c1ccc2cc(-c3ccnc(N4CCCC4)n3)ccc2c1 [4-(2-naphthyl)-2-pyrrolidin-1-ylpyrimidine] | 1.97 | – | –
30 | – | c1ccc(CCNc2nccc(-c3ccc4ccccc4c3)n2)cc1 [4-(2-naphthyl)-N-(2-phenylethyl)pyrimidin-2-amine] | 1.91 | – | –
31 | – | c1cncc(CCNc2nccc(-c3ccc4ccccc4c3)n2)c1 [4-(2-naphthyl)-N-(2-pyridin-3-ylethyl)pyrimidin-2-amine] | 1.15 | 1.04 | –
32 | 2.765 fold | c1ccc2cc(-c3ccnc(NCCc4ccncc4)n3)ccc2c1 [4-(2-naphthyl)-N-(2-pyridin-4-ylethyl)pyrimidin-2-amine] | 1.96 | 0.375 | EC50 (Homo sapiens, U2OS): 0.98 µM
33 | 6.120 fold | c1ccc2cc(-c3ccnc(NCC4CCNCC4)n3)ccc2c1 [4-(2-naphthyl)-N-(piperidin-4-ylmethyl)pyrimidin-2-amine] | 1.33 | 1.36 | –
34 | 2.690 fold | c1ccc(CNc2nccc(-c3ccc4ccccc4c3)n2)nc1 [4-(2-naphthyl)-N-(pyridin-2-ylmethyl)pyrimidin-2-amine] | 1.72 | 1.55 | –
35 | 1.960 fold | c1cncc(CNc2nccc(-c3ccc4ccccc4c3)n2)c1 [4-(2-naphthyl)-N-(pyridin-3-ylmethyl)pyrimidin-2-amine] | 1.55 | 1.41 | EC50 (Homo sapiens, U2OS): 5.9 µM
36 | 2.070 fold | c1ccc2cc(-c3ccnc(NCc4ccncc4)n3)ccc2c1 [4-(2-naphthyl)-N-(pyridin-4-ylmethyl)pyrimidin-2-amine] | 1.41 | 1.7 | EC50 (Homo sapiens, U2OS): 2.42 µM
37 | – | O=C(N1CCCC1)N1CCC(Nc2nccc(-c3ccc4ccccc4c3)n2)CC1 [4-(2-naphthyl)-N-[1-(pyrrolidin-1-ylcarbonyl)piperidin-4-yl]pyrimidin-2-amine] | 1.06 | 0.96 | –
38 | 6.560 fold | c1ccc2cc(-c3ccnc(N[C@@H]4CCNC4)n3)ccc2c1 [4-(2-naphthyl)-N-[(3R)-pyrrolidin-3-yl]pyrimidin-2-amine] | 1.76 | 3.98 | EC50 (Homo sapiens, U2OS): 9.23 µM
39 | 7.510 fold | c1ccc2cc(-c3ccnc(NC[C@@H]4CCNC4)n3)ccc2c1 [4-(2-naphthyl)-N-[(3R)-pyrrolidin-3-ylmethyl]pyrimidin-2-amine] | – | 0.06 | EC50 (Homo sapiens, U2OS): 3.88 µM

Row | SMILES | A = MAX FOLD Induction/DMSO CONTROL | fold induction at 2 µM [1] | fold induction at 20 µM (Homo sapiens, U2OS) | other results
40 | c1ccc2cc(-c3ccnc(N4CCNCC4)n3)ccc2c1 [4-(2-naphthyl)-2-piperazin-1-ylpyrimidine] | 2.050 fold | – | – | fold induction at 2 µM (Homo sapiens, U2OS, read-out: B = TCF ACTIVITY/DMSO CONTROL Fold induction @ 2.0 uM): 2.64
